Counter-ions that a name gives are not always drawn.

The first test has as its system platelet aggregation. In words: Ex vivo screening of oral GP IIb/IIIa inhibitors: inhibition of collagen-induced platelet aggregation in PRP after oral dosing in beagles. The settings on record: Canis lupus familiaris, Platelet, beagle dogs, 5 mpk, n = 2, 32 hours post-dosing, collagen agonist, read-out: Percent inhibition of platelet aggregation at 32 hour post-dosing. The method, then: Beagles (8-13 kg, various sources) of either sex are dosed orally with compound in a gelatin capsule. Blood samples are drawn from the cephalic vein using a 23 ga infusion butterfly. Samples for platelet aggregation and drug concentration are taken prior to dosing and 0.5, 1, 2, 3, 5, 7 and 10 hours after dosing and periodically on subsequent days until inhibition of platelet aggregation is less than 30%. Animals are fasted, with ad lib access to water, overnight prior to dosing. For measurement of plasma concentration blood is drawn into a 3 ml tube containing 45 USP units of Na Heparin. Blood is centrifuged at 1700×g for 10 minutes, plasma is aspirated and frozen at -20° C. until analyzed by HPLC. For measurement of platelet aggregation, blood is drawn into 2 2.0 ml tubes containing 0.2 ml of 3.8% Na Citrate. Blood is centrifuged at 250×g for 6 minutes and the platelet rich plasma (PRP) is aspirated. The remaining blood is centrifuged at 1700×g for 10 minutes and platelet poor plasma (PPP) is aspirated. Platelet aggregation is performed in a Bio-Data PAP-4 aggregometer (Bio-Data Corp., Havertown, Pa.) using collagen (100 μg/ml final concentration; Helena Laboratories, Beaumont, Tex.) as the agonist. Briefly, baseline (100% aggregation) is set using PPP; PRP is incubated at 37° C. for one minute without stirring and one minute with stirring, agonist is added and aggregation is allowed to develop for 4 minutes. Percent aggregation post-dosing is compared to percent aggregation pre-dosing to determine percent inhibition.
Percent inhibition of platelet aggregation at 32 hour post-dosing in
beagle dogs (5 mpk, n = 2)
For `CC(C)OC(=O)CCNC(=O)N[C@H]1CCN(c2ccc(C(N)=NO)cc2)C1=O` [1(b), N-[[[(3S)-1-[4-[(hydroxyamino)iminomethyl]phenyl]-2-oxo-3-pyrrolidinyl]amino]carbonyl]-β-alanine 1-methylethyl ester monohydrochloride], the inhibition in vivo at 5 mg/kg was 71%. Same read-out and setting: next, `CCCOC(=O)CCNC(=O)N[C@H]1CCN(c2ccc(C(N)=NO)cc2)C1=O` [1(c), N-[[[(3S)-1-[4-[(hydroxyamino)iminomethyl]phenyl]-2-oxo-3-pyrrolidinyl]amino]carbonyl]-β-alanine propyl ester monohydrochloride]: 94%; `CC(C)COC(=O)CCNC(=O)N[C@H]1CCN(c2ccc(C(N)=NO)cc2)C1=O` [1(d), N-[[[(3S)-1-[4-[(hydroxyamino)iminomethyl]phenyl]-2-oxo-3-pyrrolidinyl]amino]carbonyl]-β-alanine 2-methylpropyl ester monohydrochloride]: 45%. Still for that read-out and setting: next, `CC(C)(C)COC(=O)CCNC(=O)N[C@H]1CCN(c2ccc(C(N)=NO)cc2)C1=O` [1(f), N-[[[(3S)-1-[4-[(hydroxyamino)iminomethyl]phenyl]-2-oxo-3-pyrrolidinyl]amino]carbonyl]-β-alanine 2,2-dimethylpropyl ester]: 87%. As for `CCCCCOC(=O)CCNC(=O)N[C@H]1CCN(c2ccc(C(N)=NO)cc2)C1=O` [1(h), N-[[[(3S)-1-[4-[(hydroxyamino)iminomethyl]phenyl]-2-oxo-3-pyrrolidinyl]amino]carbonyl]-β-alanine pentyl ester monohydrochloride], the inhibition in vivo at 5 mg/kg came to 39%. The same measure, in the same setting: with `COC(=O)CCNC(=O)N[C@H]1CCN(c2ccc(C(=N)NOC(=O)NCCN(C)C)cc2)C1=O` [3(b), N-[[[(3S)-1-[4-(1-imino-8-methyl-4-oxo-3-oxa-2,5,8-triazanon-1-yl)phenyl]-2-oxo-3-pyrrolidinyl]amino]carbonyl]-β-alanine methyl ester] the figure was 54%. Still for that read-out and setting: with `CN1CCN(C(=O)ONC(=N)c2ccc(N3CC[C@H](NC(=O)NCCC(=O)OC4CCCCC4)C3=O)cc2)CC1` [3(cc), N-[[[(3S)-1-[4-[imino[[[(4-methyl-1-piperazinyl)carbonyl]oxy]amino]methyl]phenyl]-2-oxo-3-pyrrolidinyl]amino]carbonyl]-β-alanine cyclohexyl ester dihydrochloride monohydrate] the figure was 22%.

As for `CCOC(=O)CCNC(=O)N[C@H]1CCN(c2ccc(C(=N)NOC(=O)N(C)CCN(C)C)cc2)C1=O` [3(e), N-[[[(3S)-1-[4-(1-imino-5,8-dimethyl-4-oxo-3-oxa-2,5,8-triazanon-1-yl)phenyl]-2-oxo-3-pyrrolidinyl]amino]carbonyl]-β-alanine ethyl ester dihydrochloride], the inhibition in vivo at 5 mg/kg was determined as 54%.

For `CCOC(=O)CCNC(=O)N[C@H]1CCN(c2ccc(C(=N)NOC(=O)NCCN(C)C)cc2)C1=O` [3(f), N-[[[(3S)-1-[4-(1-imino-8-methyl-4-oxo-3-oxa-2,5,8-triazanon-1-yl)phenyl]-2-oxo-3-pyrrolidinyl]amino]carbonyl]-β-alanine ethyl ester monoacetate], the inhibition in vivo at 5 mg/kg was found to be 35%. On to `CCCCCOC(=O)CCNC(=O)N[C@H]1CCN(c2ccc(C(=N)NOC(=O)N3CCN(C)CC3)cc2)C1=O` [3(ff), N-[[[(3S)-1-[4-[imino[[[(4-methyl-1-piperazinyl)carbonyl]oxy]amino]methyl]-phenyl]-2-oxo-3-pyrrolidinyl]amino]carbonyl]-β-alanine pentyl ester dihydrochloride], for which the inhibition in vivo at 5 mg/kg worked out at 70%. The same measure, in the same setting: next, `CCOC(=O)CCNC(=O)N[C@H]1CCN(c2ccc(C(=N)NOC(=O)N(C)CCCN(C)C)cc2)C1=O` [3(g), N-[[[(3S)-1-[4-(1-imino-5,9-dimethyl-4-oxo-3-oxa-2,5,9-triazadec-1-yl)phenyl]-2-oxo-3-pyrrolidinyl]amino]carbonyl]-β-alanine ethyl ester dihydrochloride]: 69%; `CC(C)OC(=O)CCNC(=O)N[C@H]1CCN(c2ccc(C(=N)NOC(=O)N3CCN(C)CC3)cc2)C1=O` [3(h), N-[[[(3S)-1-[4-[imino[[[(4-methyl-1-piperazinyl)carbonyl]oxy]amino]methyl]phenyl]-2-oxo-3-pyrrolidinyl]amino]carbonyl]-β-alanine 1-methylethyl ester dihydrochloride]: 56%. On the same count and under the same terms, next, `CC(C)OC(=O)CCNC(=O)N[C@H]1CCN(c2ccc(C(=N)NOC(=O)NCCN(C)C)cc2)C1=O` [3(j), N-[[[(3S)-1-[4-(1-imino-8-methyl-4-oxo-3-oxa-2,5,8-triazanon-1-yl)phenyl]-2-oxo-3-pyrrolidinyl]amino]carbonyl]-β-alanine 1-methylethyl ester monoacetate]: 34%. As to `CCCOC(=O)CCNC(=O)N[C@H]1CCN(c2ccc(C(=N)NOC(=O)N3CCN(C)CC3)cc2)C1=O` [3(l), N-[[[(3S)-1-[4-[imino[[[(4-methyl-1-piperazinyl)carbonyl]oxy]amino]methyl]phenyl]-2-oxo-3-pyrrolidinyl]amino]carbonyl]-β-alanine propyl ester dihydrochloride], the inhibition in vivo at 5 mg/kg came to 71%.

On to `CCCOC(=O)CCNC(=O)N[C@H]1CCN(c2ccc(C(=N)NOC(=O)N(C)CCN(C)C)cc2)C1=O` [3(m), N-[[[(3S)-1-[4-(1-imino-5,8-dimethyl-4-oxo-3-oxa-2,5,8-triazanon-1-yl)phenyl]-2-oxo-3-pyrrolidinyl]amino]carbonyl]-β-alanine propyl ester dihydrochloride], for which the inhibition in vivo at 5 mg/kg came to 80%. Still for that read-out and setting: next, `CCCOC(=O)CCNC(=O)N[C@H]1CCN(c2ccc(C(=N)NOC(=O)NCCN(C)C)cc2)C1=O` [3(n), N-[[[(3S)-1-[4-(1-imino-8-methyl-4-oxo-3-oxa-2,5,8-triazanon-1-yl)phenyl]-2-oxo-3-pyrrolidinyl]amino]carbonyl]-β-alanine propyl ester monoacetate monohydrate]: 73%; `CC(C)COC(=O)CCNC(=O)N[C@H]1CCN(c2ccc(C(=N)NOC(=O)N(C)CCN(C)C)cc2)C1=O` [3(q), N-[[[(3S)-1-[4-(1-imino-5,8-dimethyl-4-oxo-3-oxa-2,5,8-triazanon-1-yl)phenyl]-2-oxo-3-pyrrolidinyl]amino]carbonyl]-β-alanine 2-methylpropyl ester dihydrochloride]: 57%; `CC(C)COC(=O)CCNC(=O)N[C@H]1CCN(c2ccc(C(=N)NOC(=O)NCCN(C)C)cc2)C1=O` [3(r), N-[[[(3S)-1-[4-(1-imino-8-methyl-4-oxo-3-oxa-2,5,8-triazanon-1-yl)phenyl]-2-oxo-3-pyrrolidinyl]amino]carbonyl]-β-alanine 2-methylpropyl ester monoacetate]: 46%. Still for that read-out and setting: with `CCCCOC(=O)CCNC(=O)N[C@H]1CCN(c2ccc(C(=N)NOC(=O)N(C)CCN(C)C)cc2)C1=O` [3(u), N-[[[(3S)-1-[4-(1-imino-5,8-dimethyl-4-oxo-3-oxa-2,5,8-triazanon-1-yl)phenyl]-2-oxo-3-pyrrolidinyl]amino]carbonyl]-β-alanine butyl ester dihydrochloride] the figure was 63%; with `CCOC(=O)CCNC(=O)N[C@H]1CCN(c2ccc(C(N)=NOC(=O)N(C)C)cc2)C1=O` [4(a), N-[[[(3S)-1-[4-[[[[(dimethylamino)carbonyl]oxy]amino]iminomethyl]phenyl]-2-oxo-3-pyrrolidinyl]amino]carbonyl]-β-alanine ethyl ester], 63%; with `CC(C)OC(=O)CCNC(=O)N[C@H]1CCN(c2ccc(C(N)=NOC(=O)N(C)C)cc2)C1=O` [4(b), N-[[[(3S)-1-[4-[[[[(dimethylamino)carbonyl]oxy]amino]iminomethyl]phenyl]-2-oxo-3-pyrrolidinyl]amino]carbonyl]-β-alanine 1-methylethyl ester], 20%. The same measure, in the same setting: with `CCCOC(=O)CCNC(=O)N[C@H]1CCN(c2ccc(C(N)=NOC(=O)N(C)C)cc2)C1=O` [4(c), N-[[[(3S)-1-[4-[[[[(dimethylamino)carbonyl]oxy]amino]iminomethyl]phenyl]-2-oxo-3-pyrrolidinyl]amino]carbonyl]-β-alanine propyl ester] the figure was 64%.

The test is the same for the next values; noted with them: beagle dogs, 5 mpk, n = 2, 26 hours post-dosing, collagen agonist.
Take `COC(=O)CCNC(=O)N[C@H]1CCN(c2ccc(C(=N)NOC(=O)N(C)CCN(C)C)cc2)C1=O.Cl` [3(a), N-[[[(3S)-1-[4-(1-imino-5,8-dimethyl-4-oxo-3-oxa-2,5,8-triazanon-1-yl)phenyl]-2-oxo-3-pyrrolidinyl]amino]carbonyl]-β-alanine methyl ester monohydrochloride]: the “% inhibition of platelet aggregation @ 26 hours” value is 33%. Take `CCOC(=O)CCNC(=O)N[C@H]1CCN(c2ccc(C(=N)NOC(=O)N3CCN(C)CC3)cc2)C1=O.Cl.Cl` [3(d), N-[[[(3S)-1-[4-[imino[[[(4-methyl-1-piperazinyl)carbonyl]oxy]amino]methyl]phenyl]-2-oxo-3-pyrrolidinyl]amino]carbonyl]-β-alanine ethyl ester dihydrochloride]: the “% inhibition of platelet aggregation @ 26 hours” value is recorded as 88%.
